Conditions in all cases: 10 mM MgCl2, 100 mM Tris pH 8.0, 25 °C
Experiment [1] has as its system PcIBMS1.
Experiment [2] has as its system PcIPMS1. As to the kind of experiment: DTNB end-point spectrophotometric assay. Format: biochemical, Pogostemon cablin.
The test system of experiment [3] is PcIBMS1. As to the kind of experiment: DTNB end-point spectrophotometric assay. Format: biochemical, Pogostemon cablin.
Experiment [4] deals with PcIPMS1.

Where two headings read alike, the source gives them in different places.

Take `CC(C)C(=O)C(=O)O` [2-oxoisovalerate]: the Km (as a rule, the substrate concentration at which the rate is half of its maximum) in the experiment with PcIBMS1 [1] (1 mM acetyl-CoA) came out at 444 ± 44.4 µM; in the experiment on PcIPMS1 [2] (1 mM acetyl-CoA), 288 ± 8.2 µM; in the experiment with PcIBMS1 [3] (1 mM acetyl-CoA), 1300 ± 128 µM; in the experiment on PcIPMS1 [4] (1 mM acetyl-CoA), 622 ± 58.3 µM.

Turning to `CC(C)CC(=O)C(=O)O` [4-methyl-2-oxovalerate], the values for the Km in the experiment with PcIBMS1 [1] (1 mM acetyl-CoA) and in the experiment on PcIBMS1 [3] (1 mM acetyl-CoA) were 95 ± 17.9 µM and 140 ± 39.4 µM, respectively.

Regarding `CC(=O)SCCNC(=O)CCNC(=O)[C@H](O)C(C)(C)COP(=O)(O)OP(=O)(O)OC[C@H]1O[C@@H](n2cnc3c(N)ncnc32)[C@H](O)[C@@H]1OP(=O)(O)O` [acetyl-CoA], the Km with PcIBMS1 [1] (2 mM 4-methyl-2-oxovalerate) stood at 132 ± 6.5 µM; in the experiment on PcIPMS1 [2] (2 mM 2-oxoisovalerate), 48.1 ± 2.8 µM; with PcIBMS1 [3] (2 mM 4-methyl-2-oxovalerate), 145 ± 21.2 µM; with PcIPMS1 [4] (2 mM 2-oxoisovalerate) it was 22.7 ± 1.9 µM.

Source of the values: article doi:10.1101/2021.09.28.462264v1 (biorxiv, 2021).
